The values that follow come from patent US7323484B2, “Farnesyl transferase inhibitors” (Societe de Conseils de Recherches et d'Applications …, priority 1996, dated 2008).

Each structure is given as a SMILES string.

This experiment has as its system MIA-PaCa pancreatic cancer cells (expressing mutated Ki-ras gene). The experiment can be described thus: Antiproliferative activity on human tumoral cells, WST-1 assay, MIA PaCa-2. Type of experiment: cell-based. The conditions noted are these: MIA PaCa-2 cells, 96 hrs treatment, 0 to 100 μM, WST-1, compared to control cells. The protocol:
Antiproliferative Activity of Farnesyl-Transferase Inhibitors on Human Tumoral Cells
The assays were performed using either A-427 lung carcinomas (expressing mutated Ki-ras gene), HT-29 colon adenocarcinomas (expressing wild type ras gene), Calu-1 lung carcinomas (expressing mutated Ki-ras gene), and MIA-PaCa pancreatic cancer cells (expressing mutated Ki-ras gene). These tumoral cells were seeded on 96 well plates at day 0 and maintained at 37° C. in 5% CO2 atmosphere. At day 1, cells were treated with increased concentrations of test compounds ranging from 0 to 100 μM for 96 hrs. At the end of this period, the quantification of cell proliferation was evaluated by the calorimetric assay based on the cleavage of the tetrazolium salt WST-1 by mitochondrial dehydrogenases in viable cells leading to the formazan formation (Cell Proliferation Reagent WST-1 Kit, Boehringer Mannheim, Germany). These experiments, done in octuplicate, were repeated twice. The results, shown in Table I, depict the concentration range (μM) of test compound required to inhibit proliferation as compared to control cells in which no test compound was added.
Background: Tetrazolium dyes change colour on reduction, which living cells bring about.
Consider `CCC(C)[C@H]1c2nc(-c3ccccc3OC)cn2CCN1C(=O)[C@@H](N)CSSC[C@H](N)C(=O)N1CCn2cc(-c3ccccc3OC)nc2[C@@H]1C(C)CC` (stereo partly shown) [Compound 20, bis-1,1′-[7-(2-amino-1-oxo-3-thiopropyl)-2-(methoxyphenyl)-8-(1-methylpropyl)-5,6,7,8-tetrahydroimidazo[1,2a]pyrazine]disulfide], for which the “concentration range of test compound required to inhibit proliferation, MIA PaCa-2” value was 12.5 µM.

For the compound `COc1ccccc1-c1cn2c(n1)[C@H](CC1CCCCC1)N(C(=O)[C@@H](N)CS)CC2` [Compound 26, 7-(2-amino-1-oxo-3-thiopropyl)-8-(cyclohexylmethyl)-2-(2-methoxyphenyl)-5,6,7,8-tetrahydroimidazo[1,2a]pyrazine], the “concentration range of test compound required to inhibit proliferation, MIA PaCa-2” value lay in the range of 6.25 to 12.5 µM.

For `COc1ccccc1-c1cn2c(n1)[C@H](C(C)(C)C)N(C(=O)[C@@H](N)CS)CC2` [Compound 24, 7-(2-amino-1-oxo-3-thiopropyl)-8-(1,1-dimethylethyl)-2-(2-methoxyphenyl)-5,6,7,8-tetrahydroimidazo[1,2a]pyrazine], the “concentration range of test compound required to inhibit proliferation, MIA PaCa-2” value was in the range of 25 to 50 µM.

Regarding `CCC(C)[C@H]1c2nc(-c3ccccc3OCc3ccccc3)cn2CCN1C(=O)[C@@H](N)CS` (stereo partly shown) [Compound 25, 7-(2-amino-1-oxo-3-thiopropyl)-8-(1-methylpropyl)-2-(2-(phenylmethoxy)phenyl)-5,6,7,8-tetrahydroimidazo[1,2a]pyrazine], the “concentration range of test compound required to inhibit proliferation, MIA PaCa-2” value fell in the range of 6.25 to 12.5 µM.

`CCCC[C@H]1c2nc(-c3ccccc3OC)cn2CCN1C(=O)[C@@H](N)CS` [Compound 3, 7-(2-amino-1-oxo-3-thio-propyl)-8-butyl-2-(2-methoxy-phenyl)-5,6,7,8-tetrahydro-imidazo-[1,2a]-pyrazine]: the “concentration range of test compound required to inhibit proliferation, MIA PaCa-2” value is 12.5 to 25 µM.

Take `COc1ccccc1-c1cn2c(n1)[C@H](C(C)(C)C)N(C(=O)[C@@H](N)CSSC[C@H](N)C(=O)N1CCn3cc(-c4ccccc4OC)nc3[C@@H]1C(C)(C)C)CC2` [Compound 30, bis-1,1′-[7-(2-amino-1-oxo-3-thiopropyl)-8-(1,1-dimethylethyl)-2-(2-methoxyphenyl)-5,6,7,8-tetrahydroimidazo[1,2a]pyrazine]disulfide]: the “concentration range of test compound required to inhibit proliferation, MIA PaCa-2” value is 12.5 to 25 µM.

Consider `CCCC[C@H]1c2nc(-c3c(O)cccc3OC)cn2CCN1C(=O)[C@@H](N)CS` [Compound 29, 7-(2-amino-1-oxo-3-thiopropyl)-8-butyl-2 (2-hydroxy-6-methoxyphenyl)-5,6,7,8-tetrahydro[1,2a]pyrazine], for which the “concentration range of test compound required to inhibit proliferation, MIA PaCa-2” value lay in the range of 6.25 to 12.5 µM.
